Data: the supplement of paper PMC10307832

Assays:
Experiment in all cases: relative viability (nuclei count vs DMSO), 5 days (fraction); higher = more cells survive
[1] = compound: CS(=O)(=O)CCNCc1ccc(-c2ccc3ncnc(Nc4ccc(OCc5cccc(F)c5)c(Cl)c4)c3c2)o1 [Lapatinib] + CCNC(=O)c1noc(-c2cc(C(C)C)c(O)cc2O)c1-c1ccc(CN2CCOCC2)cc1 [Luminespib] (partner 0.01 µM)
Outline: (§1)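 Relative viability is defined as nuclei in treated wells over nuclei in vehicle wells. Duplicate plates were run and medians reported. Lung cancer cell lines in 1536-well plates were dosed by pin tool one day after seeding, with one drug or with a fixed anchor-drug dose plus five library-drug doses (not always all listed) in √10 steps, and nuclei were counted after 5 days.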

[2] = compound: CS(=O)(=O)CCNCc1ccc(-c2ccc3ncnc(Nc4ccc(OCc5cccc(F)c5)c(Cl)c4)c3c2)o1 [Lapatinib] + COc1cc2c(Oc3ccc(NC(=O)C4(C(=O)Nc5ccc(F)cc5)CC4)cc3F)ccnc2cc1OCCCN1CCOCC1 [Foretinib] (partner 0.25 µM)
Outline: as §1

[3] = compound: CS(=O)(=O)CCNCc1ccc(-c2ccc3ncnc(Nc4ccc(OCc5cccc(F)c5)c(Cl)c4)c3c2)o1 [Lapatinib] + NC(=O)Nc1cc(-c2cccc(F)c2)sc1C(=O)N[C@H]1CCCNC1 [AZD7762] (partner 0.2 µM)
Outline: as §1

[4] = compound: CS(=O)(=O)CCNCc1ccc(-c2ccc3ncnc(Nc4ccc(OCc5cccc(F)c5)c(Cl)c4)c3c2)o1 [Lapatinib] + Nc1ncn([C@H]2C[C@H](O)[C@@H](CO)O2)c(=O)n1 [Decitabine] (partner 2 µM)
Outline: as §1

Cell Line | relative viability ([1]; first compound 0.02 µM) | relative viability ([1]; first compound 0.06325 µM) | relative viability ([1]; first compound 0.2 µM) | relative viability ([1]; first compound 0.6325 µM) | relative viability ([1]; first compound 2 µM) | relative viability ([2]; first compound 0.02 µM) | relative viability ([2]; first compound 0.06325 µM) | relative viability ([2]; first compound 0.2 µM) | relative viability ([2]; first compound 0.6325 µM) | relative viability ([2]; first compound 2 µM) | relative viability ([3]; first compound 0.02 µM) | relative viability ([3]; first compound 0.06325 µM) | relative viability ([3]; first compound 0.2 µM) | relative viability ([3]; first compound 0.6325 µM) | relative viability ([3]; first compound 2 µM) | relative viability ([4]; first compound 0.02 µM) | relative viability ([4]; first compound 0.06325 µM) | relative viability ([4]; first compound 0.2 µM) | relative viability ([4]; first compound 0.6325 µM) | relative viability ([4]; first compound 2 µM)
NCI-H1755 | 0.421 | 0.423 | 0.349 | 0.579 | 0.378 | 0.866 | 0.865 | 0.898 | 0.896 | 0.892 | 0.449 | 0.402 | 0.371 | 0.433 | 0.541 | 0.738 | 0.752 | 0.706 | 0.735 | 0.749
NCI-H2405 | 0.696 | 0.469 | 0.52 | 0.567 | 0.467 | 1.04 | 0.911 | 1.05 | 1.02 | 0.92 |  | 0.682 |  | 0.759 | 0.617 |  | 0.602 |  | 0.709 | 0.616
NCI-H2170 | 0.664 | 0.385 | 0.433 | 0.462 | 0.223 | 1.05 | 0.961 | 0.784 | 0.655 | 0.25 | 0.824 | 0.574 | 0.485 | 0.252 | 0.14 | 0.503 | 0.459 | 0.477 | 0.429 | 0.182
NCI-H2342 | 0.579 | 0.607 | 0.665 | 0.692 | 0.703 | 1.09 | 1.01 | 0.946 | 0.975 | 0.712 | 0.421 | 0.408 | 0.381 | 0.447 | 0.394 | 0.706 | 0.694 | 0.618 | 0.691 | 0.638
HARA |  | 0.58 | 0.54 | 0.499 | 0.399 |  | 0.593 | 0.843 | 0.631 | 0.401 | 0.174 | 0.379 | 0.51 | 0.344 | 0.247 | 0.575 | 0.525 | 0.522 | 0.37 | 0.398
H3255 | 0.471 | 0.676 | 0.879 | 0.805 | 0.757 | 0.405 | 0.789 | 0.826 | 0.862 | 0.686 | 0.818 | 0.892 | 0.799 | 0.664 | 0.501 |  | 0.543 | 0.584 | 0.422 | 0.207
NCI-H322M | 0.883 | 0.6 | 0.758 | 0.753 | 0.633 | 1.04 | 0.809 | 0.944 | 0.911 | 0.611 | 0.557 | 0.538 | 0.536 | 0.475 | 0.454 | 0.632 | 0.552 | 0.648 | 0.567 | 0.555
NCI-H1666 | 0.869 | 0.955 | 0.922 | 0.725 | 0.502 | 0.815 | 0.868 | 0.873 | 0.652 | 0.558 | 0.573 | 0.815 | 0.762 | 0.778 | 0.619 | 0.599 | 0.72 | 0.709 | 0.641 | 0.58
LU99A | 0.253 | 0.248 | 0.285 | 0.251 | 0.244 | 0.784 | 0.72 | 0.74 | 0.836 | 0.815 | 0.329 | 0.217 | 0.363 | 0.388 | 0.329 | 0.903 | 0.73 | 0.859 | 0.896 | 0.721
NCI-H460 | 0.0268 | 0.035 | 0.0347 | 0.0312 | 0.026 | 0.923 | 1 | 0.998 | 0.966 | 0.69 |  | 0.62 | 0.679 | 0.537 | 0.387 | 0.429 | 0.488 | 0.542 | 0.435 | 0.461
RERF-LC-KJ | 1.13 | 1.25 | 1.16 | 1.2 | 0.797 | 0.887 | 0.794 | 0.924 | 0.85 | 0.759 | 0.391 | 0.936 | 0.717 | 0.877 | 0.707 | 0.679 | 0.62 | 0.749 | 0.645 | 0.499
NCI-H2087 |  | 0.169 | 0.169 | 0.162 | 0.161 |  | 0.942 | 1.17 | 0.994 | 0.962 | 1.5 | 1.47 | 1.17 | 1.36 | 1.25 | 0.26 | 0.164 | 0.251 | 0.228 | 0.234
NCI-H1944 | 0.723 | 0.435 | 0.623 | 0.552 | 0.522 | 0.836 | 0.637 | 0.745 | 0.723 | 0.537 | 0.504 | 0.453 | 0.51 | 0.47 | 0.379 | 0.421 | 0.41 | 0.431 | 0.394 | 0.414
NCI-H838 | 0.25 | 0.341 | 0.381 | 0.258 | 0.283 | 1.1 | 0.951 | 1.14 | 1.06 | 0.866 | 0.927 | 0.832 | 0.904 | 0.939 | 0.843 | 0.475 | 0.453 | 0.495 | 0.484 | 0.44
NCI-H2126 |  | 0.729 | 0.833 | 0.859 | 0.775 |  |  | 1.13 | 1.03 | 0.612 | 0.55 | 0.927 | 0.983 | 0.975 | 0.928 | 0.609 | 0.52 | 0.593 | 0.548 | 0.44
NCI-H1975 | 0.256 | 0.122 | 0.239 | 0.212 | 0.206 | 0.924 | 0.855 | 1.02 | 0.835 | 0.715 | 0.821 | 0.592 | 0.617 | 0.538 | 0.5 | 0.374 | 0.413 | 0.389 | 0.397 | 0.312
